Source: ChEMBL document CHEMBL5212743, “Selectivity Literature for EUbOPEN Chemogenomics Library wave 3” (2023)
Each block holds one compound with its values, some of them ahead of it.

Columns and labels:
[1] = target: Serine/threonine-protein kinase TAO2 (Homo sapiens) (UniProt Q9UL54); test: Selectivity interaction (KinomeScan (DiscoverX)) EUB0000178b TAOK2; settings: at 1 µM
[2] = target: Non-receptor tyrosine-protein kinase TYK2 (Homo sapiens, UniProt P29597); test: Selectivity interaction (KinomeScan (DiscoverX)) EUB0000178b TYK2; settings: at 1 µM
Chain of Non-receptor tyrosine-protein kinase TYK2 (P29597 whole entry): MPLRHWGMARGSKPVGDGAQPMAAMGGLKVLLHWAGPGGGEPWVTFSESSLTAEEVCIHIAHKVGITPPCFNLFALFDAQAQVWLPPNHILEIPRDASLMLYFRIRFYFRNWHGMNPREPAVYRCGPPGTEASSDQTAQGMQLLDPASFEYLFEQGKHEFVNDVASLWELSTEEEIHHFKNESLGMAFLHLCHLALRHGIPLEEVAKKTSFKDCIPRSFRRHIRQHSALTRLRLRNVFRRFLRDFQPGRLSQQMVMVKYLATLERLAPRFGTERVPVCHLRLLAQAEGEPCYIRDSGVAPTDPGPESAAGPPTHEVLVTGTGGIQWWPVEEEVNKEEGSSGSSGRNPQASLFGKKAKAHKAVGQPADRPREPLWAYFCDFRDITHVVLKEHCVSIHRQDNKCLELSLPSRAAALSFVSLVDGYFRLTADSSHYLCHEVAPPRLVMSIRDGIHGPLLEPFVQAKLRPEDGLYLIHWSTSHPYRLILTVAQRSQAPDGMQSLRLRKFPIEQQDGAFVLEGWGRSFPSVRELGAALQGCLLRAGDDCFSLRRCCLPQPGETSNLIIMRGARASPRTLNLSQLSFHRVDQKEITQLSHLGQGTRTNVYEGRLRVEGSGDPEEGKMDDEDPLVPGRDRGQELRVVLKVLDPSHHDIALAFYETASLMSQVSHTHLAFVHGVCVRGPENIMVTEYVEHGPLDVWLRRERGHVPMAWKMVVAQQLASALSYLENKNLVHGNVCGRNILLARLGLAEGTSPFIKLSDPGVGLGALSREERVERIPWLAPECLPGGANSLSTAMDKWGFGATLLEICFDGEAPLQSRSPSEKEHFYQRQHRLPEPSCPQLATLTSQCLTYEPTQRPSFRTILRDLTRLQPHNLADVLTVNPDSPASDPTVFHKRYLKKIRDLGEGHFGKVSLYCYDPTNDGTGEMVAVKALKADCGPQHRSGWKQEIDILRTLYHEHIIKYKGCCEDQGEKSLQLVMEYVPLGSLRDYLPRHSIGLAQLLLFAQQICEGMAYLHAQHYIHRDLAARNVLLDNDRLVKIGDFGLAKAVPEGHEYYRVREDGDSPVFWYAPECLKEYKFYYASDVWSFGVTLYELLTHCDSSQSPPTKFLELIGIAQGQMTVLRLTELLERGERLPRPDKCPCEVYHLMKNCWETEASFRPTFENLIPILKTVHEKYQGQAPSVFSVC

[3] = target: Serine/threonine-protein kinase Chk2 (Homo sapiens, UniProt O96017); settings: at 1 µM
Chain of Serine/threonine-protein kinase Chk2 (O96017 whole entry): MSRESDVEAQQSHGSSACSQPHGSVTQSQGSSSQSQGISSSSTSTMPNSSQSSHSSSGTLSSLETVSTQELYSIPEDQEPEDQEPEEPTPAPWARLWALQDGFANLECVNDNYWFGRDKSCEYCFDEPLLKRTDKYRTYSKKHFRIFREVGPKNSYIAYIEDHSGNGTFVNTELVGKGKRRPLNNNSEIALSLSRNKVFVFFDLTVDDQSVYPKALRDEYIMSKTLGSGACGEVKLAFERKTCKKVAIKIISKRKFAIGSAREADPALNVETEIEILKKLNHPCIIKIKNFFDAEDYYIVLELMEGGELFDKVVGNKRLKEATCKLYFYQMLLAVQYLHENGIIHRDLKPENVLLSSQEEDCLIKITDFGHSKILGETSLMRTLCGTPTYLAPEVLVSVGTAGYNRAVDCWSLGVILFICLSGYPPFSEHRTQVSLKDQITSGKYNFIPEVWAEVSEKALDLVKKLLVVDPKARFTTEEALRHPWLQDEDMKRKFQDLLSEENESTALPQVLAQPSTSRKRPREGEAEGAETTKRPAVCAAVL

[4] = target: Cyclin-dependent kinase 19 (Homo sapiens) (UniProt Q9BWU1); settings: at 1 µM
[5] = target: Hepatocyte growth factor receptor (Homo sapiens) (UniProt P08581); settings: at 1 µM
Chain of Hepatocyte growth factor receptor (Homo sapiens) (P08581 whole entry): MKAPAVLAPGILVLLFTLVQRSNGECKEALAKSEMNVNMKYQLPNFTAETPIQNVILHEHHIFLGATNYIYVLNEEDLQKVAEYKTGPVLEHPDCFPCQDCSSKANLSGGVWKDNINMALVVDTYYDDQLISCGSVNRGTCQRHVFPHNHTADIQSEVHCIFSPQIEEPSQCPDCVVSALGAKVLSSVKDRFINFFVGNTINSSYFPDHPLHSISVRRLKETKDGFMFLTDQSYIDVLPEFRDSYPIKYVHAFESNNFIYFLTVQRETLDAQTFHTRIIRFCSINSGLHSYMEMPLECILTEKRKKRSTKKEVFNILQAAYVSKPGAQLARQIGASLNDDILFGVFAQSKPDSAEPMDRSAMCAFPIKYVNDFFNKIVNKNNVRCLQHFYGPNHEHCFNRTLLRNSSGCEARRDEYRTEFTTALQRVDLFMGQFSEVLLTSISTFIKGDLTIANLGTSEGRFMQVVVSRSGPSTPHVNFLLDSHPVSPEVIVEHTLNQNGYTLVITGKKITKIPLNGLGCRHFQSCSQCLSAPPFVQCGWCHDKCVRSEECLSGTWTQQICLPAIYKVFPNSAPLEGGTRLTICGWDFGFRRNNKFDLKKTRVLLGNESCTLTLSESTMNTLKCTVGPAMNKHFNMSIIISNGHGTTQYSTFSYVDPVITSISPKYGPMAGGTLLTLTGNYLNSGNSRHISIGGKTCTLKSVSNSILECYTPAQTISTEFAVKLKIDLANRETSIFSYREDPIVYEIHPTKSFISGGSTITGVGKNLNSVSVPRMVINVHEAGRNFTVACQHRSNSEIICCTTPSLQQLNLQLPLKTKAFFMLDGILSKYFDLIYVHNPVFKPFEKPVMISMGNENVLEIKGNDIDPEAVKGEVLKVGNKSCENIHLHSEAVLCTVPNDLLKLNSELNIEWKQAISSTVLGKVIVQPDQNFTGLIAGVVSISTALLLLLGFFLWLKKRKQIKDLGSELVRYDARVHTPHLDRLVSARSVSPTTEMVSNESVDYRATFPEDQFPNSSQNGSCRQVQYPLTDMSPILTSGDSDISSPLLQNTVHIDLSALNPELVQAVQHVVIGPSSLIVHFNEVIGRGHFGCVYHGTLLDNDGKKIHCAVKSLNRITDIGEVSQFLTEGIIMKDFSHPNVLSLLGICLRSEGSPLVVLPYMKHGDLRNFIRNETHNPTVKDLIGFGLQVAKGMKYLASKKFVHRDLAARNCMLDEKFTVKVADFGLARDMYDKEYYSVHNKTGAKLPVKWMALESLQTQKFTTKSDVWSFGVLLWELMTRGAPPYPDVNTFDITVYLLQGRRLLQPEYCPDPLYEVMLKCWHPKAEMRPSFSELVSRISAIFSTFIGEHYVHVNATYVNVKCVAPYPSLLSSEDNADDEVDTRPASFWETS

[6] = target: Macrophage colony-stimulating factor 1 receptor (Homo sapiens) (UniProt P07333); settings: at 1 µM
[7] = target: Serine/threonine-protein kinase RIO3 (Homo sapiens) (UniProt O14730); test: Selectivity interaction (KinomeScan (DiscoverX)) EUB0000698a RIOK3; settings: at 10 µM
[8] = target: Serine/threonine-protein kinase RIO1 (Homo sapiens) (UniProt Q9BRS2); test: Selectivity interaction (KinomeScan (DiscoverX)) EUB0000698a RIOK1; settings: at 10 µM
Chain of Serine/threonine-protein kinase RIO1 (Homo sapiens) (Q9BRS2 whole entry): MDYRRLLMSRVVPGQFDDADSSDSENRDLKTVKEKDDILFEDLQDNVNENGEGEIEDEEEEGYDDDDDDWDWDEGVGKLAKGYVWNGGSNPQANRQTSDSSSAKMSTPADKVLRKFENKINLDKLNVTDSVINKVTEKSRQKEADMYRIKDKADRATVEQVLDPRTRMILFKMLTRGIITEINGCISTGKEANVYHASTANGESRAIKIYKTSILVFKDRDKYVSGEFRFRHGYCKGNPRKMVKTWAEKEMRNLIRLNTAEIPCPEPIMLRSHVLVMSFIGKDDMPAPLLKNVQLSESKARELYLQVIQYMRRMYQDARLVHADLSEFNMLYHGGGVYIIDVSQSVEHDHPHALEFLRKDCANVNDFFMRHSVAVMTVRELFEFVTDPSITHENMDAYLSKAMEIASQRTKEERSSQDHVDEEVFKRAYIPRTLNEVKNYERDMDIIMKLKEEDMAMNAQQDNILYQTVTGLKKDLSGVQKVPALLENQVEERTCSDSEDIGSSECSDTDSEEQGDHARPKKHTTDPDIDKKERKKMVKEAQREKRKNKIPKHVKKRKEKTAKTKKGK

[9] = target: cAMP-dependent protein kinase catalytic subunit alpha (Homo sapiens, UniProt P17612); test: Selectivity interaction (Kinase panel (University of Dundee)) EUB0000169b PRKACA; settings: at 10 µM
[10] = target: Dual specificity protein kinase CLK4 (Homo sapiens) (UniProt Q9HAZ1); test: Selectivity interaction (KinomeScan (DiscoverX)) EUB0000702a CLK4; settings: at 1 µM
Chain of Dual specificity protein kinase CLK4 (Homo sapiens) (Q9HAZ1 whole entry, looked up): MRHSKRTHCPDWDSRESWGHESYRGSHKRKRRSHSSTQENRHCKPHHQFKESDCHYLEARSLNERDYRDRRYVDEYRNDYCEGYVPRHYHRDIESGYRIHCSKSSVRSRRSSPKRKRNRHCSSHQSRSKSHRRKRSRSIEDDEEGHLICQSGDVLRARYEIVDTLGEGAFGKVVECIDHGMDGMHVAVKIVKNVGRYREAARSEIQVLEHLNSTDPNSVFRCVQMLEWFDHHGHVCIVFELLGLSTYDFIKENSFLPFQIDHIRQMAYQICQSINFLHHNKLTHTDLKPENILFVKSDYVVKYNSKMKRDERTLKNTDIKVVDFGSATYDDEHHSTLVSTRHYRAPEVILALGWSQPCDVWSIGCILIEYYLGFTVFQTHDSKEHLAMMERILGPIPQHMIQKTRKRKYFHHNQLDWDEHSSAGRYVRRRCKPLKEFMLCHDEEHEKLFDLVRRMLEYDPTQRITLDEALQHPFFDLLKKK

[11] = target: BMP-2-inducible protein kinase (Homo sapiens) (UniProt Q9NSY1); test: Selectivity interaction (KinomeScan (DiscoverX)) EUB0000702a BMP2K; settings: at 1 µM
[12] = target: Serine/threonine-protein kinase PLK3 (Homo sapiens, UniProt Q9H4B4); test: Selectivity interaction (KinomeScan (DiscoverX)) EUB0000702a PLK3; settings: at 1 µM
Chain of Serine/threonine-protein kinase PLK3 (Q9H4B4 whole entry, looked up): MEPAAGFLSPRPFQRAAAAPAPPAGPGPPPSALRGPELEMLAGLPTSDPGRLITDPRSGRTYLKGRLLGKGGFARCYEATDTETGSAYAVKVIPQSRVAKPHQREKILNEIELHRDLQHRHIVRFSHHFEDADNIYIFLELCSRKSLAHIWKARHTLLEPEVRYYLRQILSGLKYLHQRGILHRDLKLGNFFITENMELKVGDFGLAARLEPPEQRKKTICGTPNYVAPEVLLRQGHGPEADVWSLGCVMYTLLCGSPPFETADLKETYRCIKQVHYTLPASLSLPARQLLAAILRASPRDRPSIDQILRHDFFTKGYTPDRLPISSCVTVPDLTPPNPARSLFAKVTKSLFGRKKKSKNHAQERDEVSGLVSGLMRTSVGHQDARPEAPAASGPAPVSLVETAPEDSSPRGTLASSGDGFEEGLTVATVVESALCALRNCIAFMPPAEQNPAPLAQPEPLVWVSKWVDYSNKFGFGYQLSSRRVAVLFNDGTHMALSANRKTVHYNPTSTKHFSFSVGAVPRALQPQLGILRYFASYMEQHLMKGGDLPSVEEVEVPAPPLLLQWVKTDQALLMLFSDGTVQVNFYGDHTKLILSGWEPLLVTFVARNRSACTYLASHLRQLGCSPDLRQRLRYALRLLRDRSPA

[13] = target: T1, Serine/threonine-protein kinase ULK2 (Homo sapiens) (UniProt Q8IYT8); test: Selectivity interaction (KinomeScan (DiscoverX)) EUB0000702a ULK2; settings: at 1 µM
T1 sequence (whole entry): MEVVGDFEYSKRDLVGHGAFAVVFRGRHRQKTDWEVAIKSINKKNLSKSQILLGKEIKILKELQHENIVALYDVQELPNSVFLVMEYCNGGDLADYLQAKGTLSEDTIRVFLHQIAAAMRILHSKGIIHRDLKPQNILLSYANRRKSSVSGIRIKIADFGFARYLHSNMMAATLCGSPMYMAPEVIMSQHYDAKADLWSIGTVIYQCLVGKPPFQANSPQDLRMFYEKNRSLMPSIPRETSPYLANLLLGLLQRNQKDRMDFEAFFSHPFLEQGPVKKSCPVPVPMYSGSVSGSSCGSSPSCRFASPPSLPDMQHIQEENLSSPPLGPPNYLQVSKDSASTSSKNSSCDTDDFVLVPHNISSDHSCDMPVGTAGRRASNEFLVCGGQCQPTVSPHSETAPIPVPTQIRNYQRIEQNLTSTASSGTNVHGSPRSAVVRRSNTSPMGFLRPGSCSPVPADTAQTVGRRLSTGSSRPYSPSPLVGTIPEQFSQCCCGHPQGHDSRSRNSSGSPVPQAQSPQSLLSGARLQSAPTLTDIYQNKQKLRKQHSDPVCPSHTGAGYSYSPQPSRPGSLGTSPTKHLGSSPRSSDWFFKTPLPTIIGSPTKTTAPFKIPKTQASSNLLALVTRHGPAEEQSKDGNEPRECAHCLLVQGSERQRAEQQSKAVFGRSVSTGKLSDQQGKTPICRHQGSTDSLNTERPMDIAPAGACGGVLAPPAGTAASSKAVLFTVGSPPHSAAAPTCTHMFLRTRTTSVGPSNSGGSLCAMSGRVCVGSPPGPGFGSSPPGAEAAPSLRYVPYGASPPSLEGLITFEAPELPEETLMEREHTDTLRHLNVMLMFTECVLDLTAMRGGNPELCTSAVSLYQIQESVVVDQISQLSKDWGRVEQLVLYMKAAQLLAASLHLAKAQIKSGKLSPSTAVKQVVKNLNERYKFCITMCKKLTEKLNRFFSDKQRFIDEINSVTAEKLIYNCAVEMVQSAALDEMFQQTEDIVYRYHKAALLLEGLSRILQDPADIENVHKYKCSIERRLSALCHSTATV

[14] = target: Serine/threonine-protein kinase TAO1 (Homo sapiens) (UniProt Q7L7X3); test: Selectivity interaction (KinomeScan (DiscoverX)) EUB0000702a TAOK1; settings: at 1 µM
[15] = test system: T2, Receptor-type tyrosine-protein kinase FLT3 (Homo sapiens), P36888 [D835V]; test: Selectivity interaction (KinomeScan (DiscoverX)) EUB0000305b FLT3; settings: at 100 nM
T2 sequence (whole entry): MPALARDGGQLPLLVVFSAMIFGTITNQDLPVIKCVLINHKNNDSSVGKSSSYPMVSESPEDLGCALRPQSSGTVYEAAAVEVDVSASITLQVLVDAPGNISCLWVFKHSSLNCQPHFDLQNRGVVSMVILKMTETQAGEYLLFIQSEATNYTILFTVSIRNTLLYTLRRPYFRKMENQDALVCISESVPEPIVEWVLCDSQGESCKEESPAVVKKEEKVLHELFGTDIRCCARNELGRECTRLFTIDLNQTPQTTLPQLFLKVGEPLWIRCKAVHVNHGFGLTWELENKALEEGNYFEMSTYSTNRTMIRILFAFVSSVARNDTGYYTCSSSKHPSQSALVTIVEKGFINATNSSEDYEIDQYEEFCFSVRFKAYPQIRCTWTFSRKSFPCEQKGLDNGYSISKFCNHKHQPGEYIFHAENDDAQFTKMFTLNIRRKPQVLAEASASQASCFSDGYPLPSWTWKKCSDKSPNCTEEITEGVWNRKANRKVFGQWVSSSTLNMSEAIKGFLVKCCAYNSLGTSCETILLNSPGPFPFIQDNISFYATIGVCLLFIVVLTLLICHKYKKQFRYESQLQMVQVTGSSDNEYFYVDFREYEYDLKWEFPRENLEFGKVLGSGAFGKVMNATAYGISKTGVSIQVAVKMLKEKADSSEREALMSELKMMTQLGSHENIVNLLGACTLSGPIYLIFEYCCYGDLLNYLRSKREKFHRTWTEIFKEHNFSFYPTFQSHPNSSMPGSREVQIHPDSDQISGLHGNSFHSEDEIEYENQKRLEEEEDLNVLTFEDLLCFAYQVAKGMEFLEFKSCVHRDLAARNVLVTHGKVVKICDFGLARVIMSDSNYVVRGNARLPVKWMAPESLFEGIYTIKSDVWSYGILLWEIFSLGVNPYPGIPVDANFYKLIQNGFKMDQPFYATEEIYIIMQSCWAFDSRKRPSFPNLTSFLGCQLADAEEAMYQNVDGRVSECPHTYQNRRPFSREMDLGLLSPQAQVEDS

% of control [1]: 3.4%
% of control [2]: 2.7%
Compound: CN1C(=O)c2sccc2N(C)c2nc(Nc3ccc(S(N)(=O)=O)cc3)ncc21

Compound: CCOc1cn(-c2ccc(F)cc2C)nc1C(=O)Nc1ccc(Oc2ccnc3cc(OC)c(OC)cc23)c(F)c1
% of control [3]: < 10%
% of control [4]: < 10%
% of control [5]: < 10%
% of control [6]: < 10%

% of control [7]: 4.2%
% of control [8]: 4.1%
Compound: COc1cc2ncn(-c3cc(OCc4ccccc4C(F)(F)F)c(C(N)=O)s3)c2cc1OC [GW843682X]

% of control [9]: 100%
Compound: CC[C@@H]1C(=O)N(C)c2cnc(Nc3ccc(C(=O)NC4CCN(C)CC4)cc3OC)nc2N1C1CCCC1

% of control [10]: 1.4%
% of control [11]: 2.3%
% of control [12]: 1.7%
% of control [13]: 5.4%
% of control [14]: 3.7%
Compound: CN(c1ccnc(CNc2nc(Nc3ccc4c(c3)CC(=O)N4)ncc2C(F)(F)F)n1)S(C)(=O)=O [PF-00911705]

% of control [15]: 32%
Compound: C[C@H](c1ccnc(Nc2nc3ccc(-c4cc(N(C)C)ncn4)cc3[nH]2)c1)N1CCN(C(=O)CC(F)(F)F)CC1 [BAY-985]
